IC50 and viability, T/C data for 5 compounds are collected here from PubChem BioAssay AID1963860 (Molecular Pharmacology Branch, DTP, NCI, 2024).

In the assay the test system is CN0375-F725-PDC KRAS spheroid viability. The assay is described as follows: Anticancer human tumor CN0375-F725-PDC patient-derived colon carcinoma cell line growth inhibition [KRAS2]. As to conditions: spheroids with HUVEC and MSC; for viability, T/C: stronger effect = lower value. An outline of the steps: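 KRAS-mutant tumor cells were grown as spheroids with HUVEC endothelial cells and human MSCs as stroma. Targeted agents were tested alone and with KRAS pathway inhibitors. Doses started at or near clinical Cmax, or 10 microM, descending half-log.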

[1] abbreviates: curve of first compound, second compound 0.1 µM.
The mark [2] stands for this setting: curve of first compound, second compound 0.316 µM.
The mark [3] stands for this setting: curve of first compound, second compound 1 µM.
Where [4] appears, read: curve of first compound, second compound 3.16 µM.
[5] abbreviates: curve of first compound, second compound 10 µM.
[6] abbreviates: second compound 0.1 µM, first compound 0.0316 µM.
The mark [7] stands for this setting: second compound 0.1 µM, first compound 0.1 µM.
The mark [8] stands for this setting: second compound 0.1 µM, first compound 0.316 µM.
Setting [9] is: second compound 0.1 µM, first compound 1 µM.
The mark [10] stands for this setting: second compound 0.1 µM, first compound 3.16 µM.
Setting [11] is: second compound 0.1 µM, first compound 10 µM.
Setting [12] is: second compound 0.316 µM, first compound 0.0316 µM.
[13] abbreviates: second compound 0.316 µM, first compound 0.1 µM.
The mark [14] stands for this setting: second compound 0.316 µM, first compound 0.316 µM.
The mark [15] stands for this setting: second compound 0.316 µM, first compound 1 µM.
The mark [16] stands for this setting: second compound 0.316 µM, first compound 3.16 µM.
Setting [17] is: second compound 0.316 µM, first compound 10 µM.
The mark [18] stands for this setting: second compound 1 µM, first compound 0.0316 µM.
Setting [19] is: second compound 1 µM, first compound 0.1 µM.
The mark [20] stands for this setting: second compound 1 µM, first compound 0.316 µM.
Setting [21] is: second compound 1 µM, first compound 1 µM.
The mark [22] stands for this setting: second compound 1 µM, first compound 3.16 µM.
Setting [23] is: second compound 1 µM, first compound 10 µM.
The mark [24] stands for this setting: second compound 3.16 µM, first compound 0.0316 µM.
Where [25] appears, read: second compound 3.16 µM, first compound 0.1 µM.
The mark [26] stands for this setting: second compound 3.16 µM, first compound 0.316 µM.
Where [27] appears, read: second compound 3.16 µM, first compound 1 µM.
The mark [28] stands for this setting: second compound 3.16 µM, first compound 3.16 µM.
Setting [29] is: second compound 3.16 µM, first compound 10 µM.
[30] abbreviates: second compound 10 µM, first compound 0.0316 µM.
[31] abbreviates: second compound 10 µM, first compound 0.1 µM.
Setting [32] is: second compound 10 µM, first compound 0.316 µM.
[33] abbreviates: second compound 10 µM, first compound 1 µM.
Setting [34] is: second compound 10 µM, first compound 3.16 µM.
The mark [35] stands for this setting: second compound 10 µM, first compound 10 µM.

Some results are limits rather than exact numbers.
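Further: spheroids exposed to agents for 7 days.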

What is called IC50 is the concentration that inhibits the measured activity by half. The term viability, T/C denotes the result in the treated group divided by that in the control group, in per cent. As to `COc1cc2nccc(Oc3ccc(NC(=O)C4(C(=O)Nc5ccc(F)cc5)CC4)cc3)c2cc1OC` + CC1OCC2(CCN(c3cnc(Sc4ccnc(N)c4Cl)c(N)n3)CC2)C1N, the IC50 was greater than 10 µM under setting [1]; 5.81 µM under setting [2]; 2.58 µM under setting [3]; 1.88 µM under setting [4]; 0.644 µM under setting [5]. Also, the viability, T/C was 104% under setting [6]; 94.5% under setting [7]; 83.3% under setting [8]; 69.3% under setting [9]; 56.3% under setting [10]; 63.2% under setting [11]. The viability, T/C runs as follows: under setting [12], 99.5%; under setting [13], 94.6%; under setting [14], 85.9%; under setting [15], 68.4%; under setting [16], 44.6%; under setting [17], 53.5%. In addition, the viability, T/C under setting [18] was 86.3%; the viability, T/C under setting [19] is 84.7%; the viability, T/C under setting [20] is 75.5%; the viability, T/C under setting [21] is 67.9%; the viability, T/C under setting [22] was 38.4%; the viability, T/C under setting [23] is 53.9%. Moreover, the viability, T/C is, setting by setting: under setting [24], 84.4%; under setting [25], 78.9%; under setting [26], 71.7%; under setting [27], 60.7%; under setting [28], 36.7%; under setting [29], 46.8%. Moreover, the viability, T/C by setting is: under setting [30], 66.9%; under setting [31], 69.3%; under setting [32], 57.9%; under setting [33], 46.2%; under setting [34], 25.9%; under setting [35], 31.2%.
Regarding `COc1cc2nccc(Oc3ccc(NC(=O)C4(C(=O)Nc5ccc(F)cc5)CC4)cc3)c2cc1OC`, the viability, T/C was 102% [middle of 5 runs] (compound 0.0316 µM); 97.5% [middle of 5 runs] (compound 0.1 µM); 92.5% [middle of 5 runs] (compound 0.316 µM); 88.5% [middle of 5 runs] (compound 1 µM); 57.1% [middle of 5 runs] (compound 3.16 µM); 67.7% [middle of 5 runs] (compound 10 µM). Besides, the IC50 (curve of compound) was greater than 10 µM.
For `CC1(C)CCC(CN2CCN(c3ccc(C(=O)NS(=O)(=O)c4ccc(NCC5CCOCC5)c([N+](=O)[O-])c4)c(Oc4cnc5[nH]ccc5c4)c3)CC2)=C(c2ccc(Cl)cc2)C1` + C=CC(=O)N1CCN(c2nc(=O)n(-c3c(C)ccnc3C(C)C)c3nc(-c4c(O)cccc4F)c(F)cc23)C(C)C1, the concentration for half-maximal inhibition (IC50) by setting is: under setting [1], 4.27 µM; under setting [2], 4.49 µM; under setting [3], 3.48 µM; under setting [4], 6.6 µM; under setting [5], 6.28 µM. The viability, T/C is 112% under setting [6]; 113% under setting [7]; 105% under setting [8]; 105% under setting [9]; 56.9% under setting [10]; 30.4% under setting [11]. The viability, T/C by setting is: under setting [12], 110%; under setting [13], 115%; under setting [14], 106%; under setting [15], 108%; under setting [16], 58.7%; under setting [17], 30.2%. The viability, T/C is, setting by setting: under setting [18], 110%; under setting [19], 116%; under setting [20], 109%; under setting [21], 103%; under setting [22], 52.3%; under setting [23], 23.5%. Further, the viability, T/C reads like this: under setting [24], 113%; under setting [25], 118%; under setting [26], 110%; under setting [27], 104%; under setting [28], 60.1%; under setting [29], 44.3%. Moreover, the viability, T/C is 101% under setting [30]; 104% under setting [31]; 106% under setting [32]; 103% under setting [33]; 63.8% under setting [34]; 40.6% under setting [35].
Turning to `CCN1CCN(Cc2ccc(Nc3ncc(F)c(-c4cc(F)c5nc(C)n(C(C)C)c5c4)n3)nc2)CC1`, the viability, T/C by setting is: (compound 0.00316 µM) 102% [middle of 5 runs]; (compound 0.01 µM) 95.6% [middle of 5 runs]; (compound 0.0316 µM) 91.2% [middle of 5 runs]; (compound 0.1 µM) 97.8% [middle of 5 runs]; (compound 0.316 µM) 107% [middle of 5 runs]; (compound 1 µM) 101% [middle of 5 runs]. Further, the IC50 (curve of compound) was greater than 1 µM.
Take `COC(=O)c1ccc2c(C(=Nc3ccc(N(C)C(=O)CN4CCN(C)CC4)cc3)c3ccccc3)c(O)[nH]c2c1` + COc1cc2nc(C)nc(NC(C)c3cc(N)cc(C(F)(F)F)c3)c2cc1OC1CCOC1: the IC50 under setting [1] came out at 2.14 µM; the IC50 under setting [2] was found to be 3.58 µM; the IC50 under setting [3] came to 2.4 µM; the IC50 under setting [4] turned out to be 1.46 µM; the IC50 under setting [5] was less than 0.0316 µM. Further, the viability, T/C was 97% under setting [6]; 102% under setting [7]; 91.3% under setting [8]; 87.1% under setting [9]; 31.2% under setting [10]; 0.21% under setting [11]. The viability, T/C under setting [12] is 97.9%; the viability, T/C under setting [13] is 99.5%; the viability, T/C under setting [14] was 86.3%; the viability, T/C under setting [15] was 85.3%; the viability, T/C under setting [16] was 55.4%; the viability, T/C under setting [17] is 0.5%. Also, the viability, T/C runs as follows: under setting [18], 91.8%; under setting [19], 91.5%; under setting [20], 85%; under setting [21], 77%; under setting [22], 41.6%; under setting [23], 0.19%. Moreover, the viability, T/C was 85.8% under setting [24]; 78.8% under setting [25]; 80.6% under setting [26]; 66.8% under setting [27]; 16.1% under setting [28]; 0.48% under setting [29]. For the same compound, the viability, T/C reads like this: under setting [30], 18.3%; under setting [31], 18.9%; under setting [32], 13.1%; under setting [33], 9.52%; under setting [34], 1.91%; under setting [35], 0.15%.
